In patent publication US9522886B2, “Pyridine derivatives” (Hoffmann-La Roche Inc., priority 2012, dated 2016) one finds EC50 data, which are given here for 26 molecules.

As a reminder, the pEC50 is the EC50 on a negative log10 scale, so that one unit is a factor of ten.

The target of one test is human CB1 receptors (Homo sapiens (Human), UniProt P21554). In words: cAMP assay, CHO cells expressing human CB1 receptors. Type of test: cell-based. On the procedure:
(§1) CHO cells expressing human CB1 or CB2 receptors are seeded 17-24 hours prior to the experiment 50.000 cells per well in a black 96 well plate with flat clear bottom (Corning Costar #3904) in DMEM (Invitrogen No. 31331), 1×HT supplement, with 10% fetal calf serum and incubated at 5% CO2 and 37° C. in a humidified incubator. The growth medium was exchanged with Krebs Ringer Bicarbonate buffer with 1 mM IBMX and incubated at 30° C. for 30 min. Compounds were added to a final assay volume of 100 μl and incubated for 30 min at 30° C. Using the cAMP-Nano-TRF detection kit the assay (Roche Diagnostics) was stopped by the addition of 50 μl lysis reagent (Tris, NaCl, 1.5% Triton X100, 2.5% NP40, 10% NaN3) and 50 μl detection solutions (20 μM mAb Alexa700-cAMP 1:1, and 48 μM Ruthenium-2-AHA-cAMP) and shaken for 2 h at room temperature. The time-resolved energy transfer is measured by a TRF reader (Evotec Technologies GmbH), equipped with a ND:YAG laser as excitation source. The plate is measured twice with the excitation at 355 nm and at the emission with a delay of 100 ns and a gate of 100 ns, total exposure time 10 s at 730 (bandwidth 30 nm) or 645 nm (bandwidth 75 nm), respectively.
(§2) EC50 values were determined using Activity Base analysis (ID Business Solution, Limited).

Another test deals with human CB2 receptors (Homo sapiens (Human), UniProt P34972). In words: cAMP assay, CHO cells expressing human CB2 receptors. Type of test: cell-based. As for the experimental part:
as §1, §2
(In general: cAMP levels reflect the balance of adenylyl cyclase and phosphodiesterase activity.)

Setting [1] is: functional cAMP assay, CHO cells expressing human CB1, read-out: human CB1 EC50.
The mark [2] stands for this setting: functional cAMP assay, CHO cells expressing human CB2, read-out: human CB2 EC50.

pEC50: −log10 of the molar value. Where a name gives a salt, the structure may show the parent alone. Read-outs that look alike come from different tables or passages of the source. A value given as a limit tells only on which side of the number the result lay.

Sequence of human CB1 receptors (P21554 whole entry): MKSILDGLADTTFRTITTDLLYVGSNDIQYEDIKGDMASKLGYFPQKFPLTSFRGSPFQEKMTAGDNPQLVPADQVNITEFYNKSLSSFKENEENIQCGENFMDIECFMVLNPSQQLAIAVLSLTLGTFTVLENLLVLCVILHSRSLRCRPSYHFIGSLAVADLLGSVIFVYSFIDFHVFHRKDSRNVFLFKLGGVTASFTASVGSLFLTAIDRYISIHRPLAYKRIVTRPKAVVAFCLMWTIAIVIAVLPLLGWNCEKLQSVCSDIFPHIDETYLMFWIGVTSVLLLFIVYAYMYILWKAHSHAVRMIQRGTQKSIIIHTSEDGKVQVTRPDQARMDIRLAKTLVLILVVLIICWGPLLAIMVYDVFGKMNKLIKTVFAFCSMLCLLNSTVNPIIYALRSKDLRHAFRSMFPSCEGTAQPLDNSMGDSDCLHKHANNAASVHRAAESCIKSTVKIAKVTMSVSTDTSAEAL
Sequence of human CB2 receptors (P34972 whole entry): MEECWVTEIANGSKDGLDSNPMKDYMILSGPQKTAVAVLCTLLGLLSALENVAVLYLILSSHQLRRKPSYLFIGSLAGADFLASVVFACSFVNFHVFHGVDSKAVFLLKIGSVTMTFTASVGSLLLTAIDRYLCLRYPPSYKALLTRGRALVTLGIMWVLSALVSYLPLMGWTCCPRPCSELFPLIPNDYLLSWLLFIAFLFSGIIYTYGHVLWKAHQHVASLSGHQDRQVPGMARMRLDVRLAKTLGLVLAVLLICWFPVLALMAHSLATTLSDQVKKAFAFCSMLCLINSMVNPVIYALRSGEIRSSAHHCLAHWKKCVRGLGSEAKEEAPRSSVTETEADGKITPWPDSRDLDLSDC

Take `CCOC(=O)CC(CC(C)C)NC(=O)c1ccc(C2CC2)c(OCC2CC2)n1` (stereo not shown) [Example 22, 3-[(5-Cyclopropyl-6-cyclopropylmethoxy-pyridine-2-carbonyl)-amino]-5-methyl-hexanoic acid ethyl ester]: the results for the pEC50 on human CB1 receptors (setting [1]) and at human CB2 receptors (setting [2]) were < 5.00 and 7.92, respectively.
For `NC(=O)CC1(NC(=O)c2ccc(C3CC3)c(Cc3ccc(F)cc3)n2)CCNCC1` [Example 66, N-[4-(2-Amino-2-oxoethyl)piperidin-4-yl]-5-cyclopropyl-6-[(4-fluorophenyl)methyl]pyridine-2-carboxamide; hydrochloride], in that order: < 5.00 and 8.89.
Consider `NC(=O)CC(NC(=O)c1ccc(C2CC2)c(OCC2CC2)n1)C1CCOCC1` (single isomer, unassigned; (-)) [Example 34, (−)-5-Cyclopropyl-6-cyclopropylmethoxy-pyridine-2-carboxylic acid [2-carbamoyl-1-(tetrahydro-pyran-4-yl)-ethyl]-amide], for which the results for the pEC50 on human CB1 receptors (setting [1]) and at human CB2 receptors (setting [2]) were < 5.00 and 8.66, respectively.
For `CC(C)CC(CC(=O)OC(C)(C)C)NC(=O)c1ccc(N2CC(F)(F)C2)c(OCC2CC2)n1` (stereo not shown) [Example 2, tert-Butyl 3-({[6-(cyclopropylmethoxy)-5-(3,3-difluoroazetidin-1-yl)pyridin-2-yl]carbonyl}amino)-5-methylhexanoate], in that order: < 5.00 and 6.17.
For `NC(=O)CC(NC(=O)c1ccc(C2CC2)c(OCC2CC2)n1)C1CC1` (single isomer, unassigned; (-)) [Example 27, (−)-5-Cyclopropyl-6-cyclopropylmethoxy-pyridine-2-carboxylic acid (2-carbamoyl-1-cyclopropyl-ethyl)-amide], the pEC50 at human CB1 receptors (setting [1]) was < 5.00; at human CB2 receptors (setting [2]) it was 8.85.
`NC(=O)CC1(NC(=O)c2ccc(N3CC(F)(F)C3)c(OCC3CC3)n2)CCNCC1` [Example 85, N-[4-(2-Amino-2-oxoethyl)piperidin-4-yl]-6-(cyclopropylmethoxy)-5-(3,3-difluoroazetidin-1-yl)pyridine-2-carboxamide]: the pEC50 at human CB1 receptors (setting [1]) was < 5.00; at human CB2 receptors (setting [2]) it was 6.57.
For `NC(=O)CC1(NC(=O)c2ccc(N3CC(F)(F)C3)c(OCC3CC3)n2)CCC1` [Example 70, N-[1-(2-Amino-2-oxoethyl)cyclobutyl]-6-(cyclopropylmethoxy)-5-(3,3-difluoroazetidin-1-yl)pyridine-2-carboxamide], in that order: < 5.00 and 9.22.
On to `NC(=O)CC1(NC(=O)c2ccc(C(F)(F)F)c(OCC3CC3)n2)CSC1` [Example 97, N-[3-(2-Amino-2-oxoethyl)thietan-3-yl]-6-(cyclopropylmethoxy)-5-(trifluoromethyl)pyridine-2-carboxamide], for which the pEC50 on human CB1 receptors (setting [1]) is < 5.00; on human CB2 receptors (setting [2]), 7.94.
On to `O=C(O)CC1(NC(=O)c2ccc(N3CC(F)(F)C3)c(OCC3CC3)n2)CCOCC1` [Example 57, (4-{[6-Cyclopropylmethoxy-5-(3,3-difluoro-azetidin-1-yl)-pyridine-2-carbonyl]-amino}-tetrahydro-pyran-4-yl)-acetic acid], for which the pEC50 on human CB1 receptors (setting [1]) was < 5.00; on human CB2 receptors (setting [2]) it was 8.52.
For the molecule `CNC(=O)CC(CCc1ccccc1)NC(=O)c1ccc(N2CC(F)(F)C2)c(OCC2CC2)n1` (stereo not shown) [Example 8, 6-Cyclopropylmethoxy-5-(3,3-difluoro-azetidin-1-yl)-pyridine-2-carboxylic acid (1-methylcarbamoylmethyl-3-phenyl-propyl)-amide], the pEC50 was < 5.00 on human CB1 receptors (setting [1]) and 6.52 on human CB2 receptors (setting [2]).
Consider `CC(C)(C)[C@H](CC(N)=O)NC(=O)c1ccc(C2CC2)c(OCC2CC2)n1` [Example 35, 5-Cyclopropyl-6-cyclopropylmethoxy-pyridine-2-carboxylic acid ((S)-1-carbamoylmethyl-2,2-dimethyl-propyl)-amide], for which the figures for the pEC50 on human CB1 receptors (setting [1]) and on human CB2 receptors (setting [2]) were 6.68 and 9.22, respectively.
As for `CC(C)C[C@@H](CC(N)=O)NC(=O)c1ccc(C2CC2)c(OCC2CC2)n1` [Example 24, (−)-5-Cyclopropyl-6-cyclopropylmethoxy-pyridine-2-carboxylic acid (1-carbamoylmethyl-3-methyl-butyl)-amide], the figures for the negative logarithm of the EC50 (pEC50) at human CB1 receptors (setting [1]) and at human CB2 receptors (setting [2]) were < 5.00 and 8.52, respectively.
With `NC(=O)CC1(NC(=O)c2ccc(C3CC3)c(Cc3ccc(F)cc3)n2)CCOC1` (stereo not shown) [Example 87, N-[3-(2-Amino-2-oxoethyl)oxolan-3-yl]-5-cyclopropyl-6-[(4-fluorophenyl)methyl]pyridine-2-carboxamide], the pEC50 at human CB1 receptors was 7.46; at human CB2 receptors it was 9.52.
As for `NC(=O)CC1(NC(=O)c2ccc(C3CC3)c(OCC(F)(F)C(F)(F)F)n2)COC1` [Example 49, 5-Cyclopropyl-6-(2,2,3,3,3-pentafluoro-propoxy)-pyridine-2-carboxylic acid (3-carbamoylmethyl-oxetan-3-yl)-amide], the pEC50 on human CB1 receptors (setting [1]) was < 5.00; on human CB2 receptors (setting [2]), 7.90.
For `NC(=O)CC1(NC(=O)c2cccc(-c3ccc(F)c(Cl)c3)n2)CS(=O)(=O)C1` [Example 79, N-[3-(2-Amino-2-oxoethyl)-1,1-dioxothietan-3-yl]-6-(3-chloro-4-fluorophenyl)pyridine-2-carboxamide], the pEC50 on human CB1 receptors (setting [1]) is < 5.00; at human CB2 receptors (setting [2]) it was 7.13.
For `NC(=O)CC(NC(=O)c1ccc(C2CC2)c(OCC2CC2)n1)C(F)(F)F` (single isomer, unassigned; (+)) [Example 32, (+)-5-Cyclopropyl-6-cyclopropylmethoxy-pyridine-2-carboxylic acid (1-carbamoylmethyl-2,2,2-trifluoro-ethyl)-amide], in that order: < 5.00 and 6.86.
For `NC(=O)CC(NC(=O)c1ccc(C2CC2)c(OCC2CC2)n1)C1CCCCC1` (single isomer, unassigned; (+)) [Example 18, (+)-5-Cyclopropyl-6-cyclopropylmethoxy-pyridine-2-carboxylic acid (2-carbamoyl-1-cyclohexyl-ethyl)-amide], in that order: < 5.00 and 8.82.
For the molecule `NC(=O)CC1(NC(=O)c2ccc(C3(O)CCC3)c(OCC3CC3)n2)CSC1` [Example 95, N-[3-(2-Amino-2-oxoethyl)thietan-3-yl]-6-(cyclopropylmethoxy)-5-(1-hydroxycyclobutyl)pyridine-2-carboxamide], the pEC50 at human CB1 receptors (setting [1]) is < 5.00; at human CB2 receptors (setting [2]) it was 8.96.
For `CC(C)C[C@H](CC(N)=O)NC(=O)c1ccc(C2CC2)c(OCC2CC2)n1` [Example 25, (+)-5-Cyclopropyl-6-cyclopropylmethoxy-pyridine-2-carboxylic acid (1-carbamoylmethyl-3-methyl-butyl)-amide], in that order: < 5.00 and 8.37.
Take `CCOC(=O)CC(NC(=O)c1ccc(N2CC(F)(F)C2)c(OCC2CC2)n1)c1ccccc1` (stereo not shown) [Example 4, 3-{[6-Cyclopropylmethoxy-5-(3,3-difluoro-azetidin-1-yl)-pyridine-2-carbonyl]-amino}-3-phenyl-propionic acid ethyl ester]: the pEC50 on human CB1 receptors (setting [1]) is < 5.00; at human CB2 receptors (setting [2]), 8.38.
As for `NC(=O)CC(NC(=O)c1ccc(C2CC2)c(OCC2CC2)n1)C1CCOC1` (stereo not shown) [Example 64, N-[3-Amino-3-oxo-1-(oxolan-3-yl)propyl]-5-cyclopropyl-6-(cyclopropylmethoxy)pyridine-2-carboxamide], the results for the pEC50 at human CB1 receptors (setting [1]) and on human CB2 receptors (setting [2]) were < 5.00 and 8.28, respectively.
With `NC(=O)CC1(NC(=O)c2ccc(N3CC(F)(F)C3)c(OCC3CC3)n2)CNC(=O)C1` (stereo not shown) [Example 54, 6-Cyclopropylmethoxy-5-(3,3-difluoro-azetidin-1-yl)-pyridine-2-carboxylic acid (3-carbamoylmethyl-5-oxo-pyrrolidin-3-yl)-amide], the pEC50 on human CB1 receptors (setting [1]) is < 5.00; on human CB2 receptors (setting [2]) it was 7.26.
In the case of `CCOC(=O)CC(C)(C)NC(=O)c1ccc(N2CC(F)(F)C2)c(OCC2CC2)n1` [Example 5, 3-{[6-Cyclopropylmethoxy-5-(3,3-difluoro-azetidin-1-yl)-pyridine-2-carbonyl]-amino}-3-methyl-butyric acid ethyl ester], the values for the pEC50 on human CB1 receptors (setting [1]) and at human CB2 receptors (setting [2]) were < 5.00 and 6.29, respectively.
With `CNC(=O)CC1(NC(=O)c2ccc(N3CC(F)(F)C3)c(OCC3CC3)n2)COC1` [Example 37, 6-Cyclopropylmethoxy-5-(3,3-difluoro-azetidin-1-yl)-pyridine-2-carboxylic acid (3-methylcarbamoylmethyl-oxetan-3-yl)-amide], the results for the pEC50 on human CB1 receptors (setting [1]) and on human CB2 receptors (setting [2]) were < 5.00 and 6.44, respectively.
As for `NC(=O)CC1(NC(=O)c2ccc(C3CC3)c(OCC3CC3)n2)CS(=O)(=O)C1` [Example 77, N-[3-(2-Amino-2-oxoethyl)-1,1-dioxothietan-3-yl]-5-cyclopropyl-6-(cyclopropylmethoxy)pyridine-2-carboxamide], the pEC50 on human CB1 receptors (setting [1]) was < 5.00; at human CB2 receptors (setting [2]), 9.15.
For `NC(=O)CC1(NC(=O)c2ccc(C3(F)COC3)c(OCC3CC3)n2)COC1` [Example 93, N-[3-(2-Amino-2-oxoethyl)oxetan-3-yl]-6-(cyclopropylmethoxy)-5-(3-fluorooxetan-3-yl)pyridine-2-carboxamide], in that order: < 5.00 and 7.83.
